Test results from patent USRE40246E1, “Method for the suppression of viral growth” (John Hopkins University, priority 1994, dated 2008).
“And” between values parts separate entries of the source, which are not always exact repeats. Identical values can stand only once. Like-named read-outs stand apart in the source and are kept apart here.

What was measured:
[1] = test system: HSV-18m44-CV4r; assay: Drug sensitivity against ACV resistant strain of HSV-1; format: cell-based
[2] = test system: HSV-1; assay: Topical treatment of HSV-1 infected skin of guinea pigs; format: in vivo; conditions: guinea pig; for suppression of HSV-1 replication in infected skin: topical five times per day for five days, ABPS 2 and 4 mg/ml, tetramethoxyl NDGA 60 mg/ml, acyclovir 60 mg/ml
Description: It is also noted that tetramethoxyl NDGA 4N has been used in an animal system, i.e. to treat HSV infected skin of guinea pigs.
Two male guinea pigs (350 gm body weight) were used in the guinea pig experiment. The back skin of the animal was shaved and equally divided into six patches. Each skin patch was pinched with seven-pin needles and HSV-1 suspension was applied topically to infect each punched area. Twenty-four hours after infection, three agents (ABPS, 2 mg/ml, ABPS 4 mg/ml, tetramethoxyl NDGA, 4N 60 mg/ml and acyclovir 60 mg/ml) were applied to the infected areas five times per day for five days. Picture (FIG. 8) was taken 96 hours following infection.

[3] = test system: HSV-Sm44-ACVg; assay: Drug sensitivity against ACV sensitive strain of HSV-1; format: cell-based; conditions: Human alphaherpesvirus 1, read-out: IC50, HSV-Sm44-ACVg
[4] = test system: HSV-1; assay: Drug sensitivity against HSV-1 in Vero cells at different viral passages; format: cell-based; conditions: for IC50: Human alphaherpesvirus 1, Vero
Excerpt: Virus which recovered from medium of each passage at IC50 drug concentration were used to infect the subsequent passage of the cells.

[5] = test system: HIV-1; assay: microbe, parasite or virus in culture; conditions: Human immunodeficiency virus 1, CEM-SS, read-out: EC50, concentration that protects XTT formazan production in infected culture to 50% of uninfected, untreated cells
Description: Consequently, creosote bush extract was tested at the National Cancer Institute (NCI) for inhibition of HIV-1 cytopathic effects using the soluble-formazan assay (Weislow et al., JNCI 81: 577-586, 1989, the entire contents of which are hereby incorporated by reference and relied upon). In principle, CEM-SS cells (ATCC, Rockville, Md.) are cocultivated with HIV-producing H9 cells. Viruses infect the host CEM-SS cells, replicate and kill most of the CEM-SS cells in a week. If the drug inhibits HIV production, CEM-SS cells are protected from HIV-induced cell death.
In practice, triplicate samples of CEM-SS cells (5000) were plated in 96-well microtiter plate. Appropriate concentrations of test compounds were added in a final volume of 100 μl calcium/magnesium-free PBS in 5% DMSO. Control samples received the compound medium (PBS) alone. Five minutes later, 500 highly infectious HIV-1 producing II9 cells or normal H9 cells were added to the wells containing the appropriate drug concentrations. The microtiter plates were incubated at 37° C. in 95% O2/5% CO2 for 6 days after which a 50-μl mixture of XTT and N-methylphenazonium methosulfate (PMS) was added. The plates were reincubated for additional 4 hours for the color development (XTT formazan production). The plates were sealed, their contents were mixed by automatic shaking and the OD450 of samples was determined in a microplate reader. […]

[6] = test system: Tat regulated transactivation (Tat-TRS) of HIV-1 LTR promoter; assay: Secreted alkaline phosphatase (SEAP) assay for Tat transactivation in cotransfected COS cells; format: cell-based; conditions: for EC50: Human immunodeficiency virus 1, COS, 48 h; for Inhibition of Tat-induced SEAP expression: read at 30 minutes
Excerpt: To screen for inhibitors for Tat regulated transactivation (Tat-TRS), the secreted placental alkaline phosphatase (SEAP) reporter gene is put under the control of HIV-1 LTR promoter in the plasmid pBC12HIV/SEAP. The Tat-coded activity is supplied by a second plasmid construct pBC12/CMV/t2. […] An inhibitor should cause reduction of the SEAP activity which is due to inhibition of the expression of the SEAP mRNA via transactivation of the HIV-1 LTR promoter by Tat protein (Tat-TRS).
For the SEAP assay, test materials were dissolved in 10% DMSO solution made in calcium/magnesium-free PBS. The suspension was centrifuged and the stock solution (10 mg/ml) was filter-sterilized using a Millex®-GS […] filter (Millipore). Appropriate dilutions of the stock solution were prepared in a final DMSO concentration of 0.2% in PBS to obtain the various concentrations of test compounds.
Briefly, a day before DNA transfection, Linbro® 24 flat bottom well of 17-mm diameter plates were pretreated with 0.5 ml sterile solution of 0.1% gelatin. The plates were kept in the hood for 1 hour (all transfection steps were performed in the hood, unless otherwise stated). The gelatin solution was aspirated and the plates were washed with 0.5 ml of IMDM supplemented with 10% fetal calf serum and antibiotics (complete medium). […] DNA transfection was performed at 30-50% cell confluency. The stock solution of the Transfectam reagent, DOGS, was prepared according to the manufacturer's advice at 1 mg/0.380 ml ([…] or 3.4 mM) in 10% (v/v) ethanol in distilled water.
The transfection cocktail consisted of two solutions prepared in sterile tubes: • a) Solution A contained a sterile 150 mM NaCl solution+plasmid DNAs (non selected/selected gene in 2:1 ratio): 0.35 μg of pBC12/HIV/SEAP per well+0.175 μg of pBC12/CMB/t2 (coding for Tat function) per well. • b) Solution B Contained an equal volume of 150 mM NaCl and a volume of Transfectame determined to be 6 times the total amount of DNAS. Solutions A and B were homogenized and immediately mixed.
Ten minutes were allowed for the reaction to proceed. Meanwhile, the growth medium was removed from the subconf luent COS cells and 300 μl (100 μl of complete IMDM+200 μl serum-free medium) were added to each well. The transfection cocktail was dispensed to the wells in equal volume. Control samples containing no DNA were similarly treated and received sterile 150 mM NaCl solution alone. All samples were incubated for 10 and 12 hours after which 700 μl of complete growth medium were added. Test compounds prepared in 5% DMSO/Ca-Mg-free PBS (for non-water-soluble materials) were immediately added at various concentrations to the wells. Drug-untreated control samples received 5% DMSO/PBS solution alone (final DMSO concentration of 0.2%). All samples were then incubated for an additional 48 hours after which 300 μl of each culture supernatant was removed for SEAP analysis.
Briefly, a 250-μl aliquot was removed from COS cell culture supernatants, heated at 65° C. for 5 minutes to selectively inactivate endogenous phosphatase (SEAP is heat stable) and centrifuged in a microfuge for 2 minutes. One hundred μl of 2×SEAP assay buffer (1.0 M diethanolamine, pH 9.8; 0.5 mM MgCl2; 10 mm L-homoarginine) were added to 100-μl aliquot of the samples. The solution was mixed and transferred into a 96-well flat-bottom culture dish (Corning). Twenty μl of pre-warmed substrate solution (120 mM p-nitrophenylphosphate dissolved in 1×SEAP assay buffer) were dispensed with a multipipeter into each well containing the reaction mixture. A405 of the reaction was read at 5-minute intervals at 37° C. for 60 minutes using an EL340i microplate reader (Bio-tek Instruments, Inc.) with 5-second automatic shakings before each reading. The change in absorbance was plotted against time in the standard assay of SEAP induction.

[7] = test system: uninfected CEM-SS cells; assay: Soluble-formazan (XTT) assay, viability of uninfected CEM-SS cells; format: cell-based; conditions: Homo sapiens, read-out: IC50, inhibitory or toxic concentration reducing XTT formazan production in uninfected cultures to 50%
[8] = test system: HSV-1 ICP4; assay: Inhibition of HSV-1 ICP4 transactivation in Vero cells; format: cell-based; conditions: Human alphaherpesvirus 1, Vero
[9] = test system: HSV-1; assay: Inhibition of HSV-1 replication in Vero cells; format: cell-based; conditions: Human alphaherpesvirus 1, Vero
[10] = test system: Vero cells; assay: Inhibition of growth of Vero cells; format: cell-based; conditions: Chlorocebus sabaeus
[11] = Human alphaherpesvirus 1, read-out: IC50, HSV-18m44-CV4r
[12] = read-out: IC50 against HSV-1 in Vero Cells, Passage 1
[13] = read-out: IC50 against HSV-1 in Vero Cells, Passage 2
[14] = read-out: IC50 against HSV-1 in Vero Cells, Passage 3
[15] = read-out: IC50 against HSV-1 in Vero Cells, Passage 4
[16] = read-out: IC50 against HSV-1 in Vero Cells, Passage 5
[17] = read-out: IC50 against HSV-1 in Vero Cells, Passage 10
[18] = read-out: EC50 (concentration exhibiting 50% inhibition) of Tat regulated HIV transactivation, SEAP expression
[19] = read-out: EC50 of Tat regulated HIV transactivation, SEAP expression
[20] = Mal 4 at 9.5 μm, NDGA at 9.9 μm
[21] = Mal 4 at 31.3 μm, NDGA at 32.6 μm
[22] = Mal 4 at 62.7 μm, NDGA at 65.2 μm

## Nc1nc2c(ncn2COCCO)c(=O)[nH]1 [ACV, acyclovir, reference compound]
[1]; [11]
  IC50: 118 µM
[2]
  suppression of HSV-1 replication in infected skin: effective
[3]
  IC50: < 6.9 µM
[4]; [12]
  IC50: 7.5 µM
[4]; [13]
  IC50: 37.8 µM
[4]; [14]
  IC50: > 88.8 µM
[4]; [15]
  IC50: 138 µM
[4]; [16]
  IC50: > 220 µM
[4]; [17]
  IC50: 440 µM
[4]; read-out: concentration required to inhibit HSV-1, 10th passage
  IC50: 440 µM
[4]; read-out: concentration required to inhibit HSV-1, first passage
  IC50: 7.5 µM

## COc1ccc(CC(C)C(C)Cc2ccc(O)c(O)c2)cc1O (stereo not shown) [Mal 4, 1-(3,4-dihydroxyphenyl)-4-(3-hydroxy-4-methoxyphenyl)-2,3-dimethylbutane]
[5]
  EC50: 4.25 µg/mL and 13.4 µM
[6]; [18]
  EC50: 8 µg/mL
[6]; [19]
  EC50: 25 µM
[6]; [20]
  Inhibition of Tat-induced SEAP expression: 13.6%
[6]; [21]
  Inhibition of Tat-induced SEAP expression: 60.4%
[6]; [22]
  Inhibition of Tat-induced SEAP expression: 92%
[6]; Mal 4 at 95 μm, NDGA at 99 μm
  Inhibition of Tat-induced SEAP expression: 100%
[7]
  IC50: 100 µg/mL and 325 µM

## CC(Cc1ccc(O)c(O)c1)C(C)Cc1ccc(O)c(O)c1 (stereo not shown) [NDGA, 1,4-bis-(3,4-dihydroxyphenyl)-2,3-dimethylbutane]
[6]; [18]
  EC50: 6 µg/mL
[6]; [19]
  EC50: 20 µM
[6]; [20]
  Inhibition of Tat-induced SEAP expression: 17.0%
[6]; [21]
  Inhibition of Tat-induced SEAP expression: 73.8%
[6]; [22]
  Inhibition of Tat-induced SEAP expression: 88.1%
[6]; Mal 4 at 95 μm, NDGA at 99 μm
  Inhibition of Tat-induced SEAP expression: 92.9%

## COc1ccc(C[C@@H](C)[C@@H](C)Cc2ccc(OC)c(OC)c2)cc1OC [Tetramethoxyl NDGA, tetramethoxyl nordihydroguaiaretic acid]
[1]; [11]
  IC50: 6.9 µM
[1]; Human alphaherpesvirus 1, read-out: IC50 against acyclovir resistant strain (HSV-1 SM44-CV4r)
  IC50: 6.9 µM
[8]
  IC50: 33 µM
[8]; 20 μM
  inhibition at 20 µM: 8%
[8]; 30 μM
  inhibition at 30 µM: 30%
[8]; 40 μM
  inhibition at 40 µM: 35%
[8]; 50 μM
  inhibition at 50 µM: 52%
[8]; 60 μM
  inhibition at 60 µM: 64%
[8]; 70 μM
  inhibition at 70 µM: 68%
[8]; 80 μM
  inhibition at 80 µM: 78%
[2]; 60 mg/ml, daily topical treatment, five days
  HSV-1 growth at infected skin areas: eliminated HSV-1 growth completely
[2]
  suppression of HSV-1 replication in infected skin: effective
[3]
  IC50: 6.9 µM
[9]
  IC50: 7.7 µM
[9]; 0.437 μM
  inhibition at 0.437 µM: < 0%
[9]; 0.875 μM
  inhibition at 0.875 µM: < 0%
[9]; 1.75 μM
  inhibition at 1.75 µM: < 0%
[9]; 3.5 μM
  inhibition at 3.5 µM: 20%
[9]; 7 μM
  inhibition at 7 µM: 40%
[9]; 14 μM
  inhibition at 14 µM: 97.5%
[4]; read-out: IC50 against HSV-1, essentially the same from first passage to tenth passage, first to tenth passage in vero cells
  IC50: ~10 µM
[4]; [12]
  IC50: 11.7 µM
[4]; [13]
  IC50: 4.4 µM
[4]; [14]
  IC50: 8.2 µM
[4]; [15]
  IC50: 5.9 µM
[4]; [16]
  IC50: 9.9 µM
[4]; [17]
  IC50: 10 µM
[4]; following ten viral passages in vero cells
  drug resistance of HSV virus toward the drug: showed no drug resistance
[10]
  IC50: 142 µM
[10]; 4.37 μM
  inhibition at 4.37 µM: 1.27%
[10]; 8.75 μM
  inhibition at 8.75 µM: 3.18%
[10]; 17.5 μM
  inhibition at 17.5 µM: 7.64%
[10]; 35 μM
  inhibition at 35 µM: 7.64%
[10]; 70 μM
  inhibition at 70 µM: 9.55%
[10]; 140 μM
  inhibition at 140 µM: 44%
[10]; 280 μM
  inhibition at 280 µM: 79.6%
